{"source": "patent US10045980B2", "about": "“Inhibitor of p38 map kinase” (RESPIVERT LTD, priority 2014, dated 2018)", "key": {"[1]": {"system": "BEAS2B cells", "assay": "Poly I:C-induced ICAM-1 expression in BEAS2B cells", "type": "cell-based", "conditions": "Homo sapiens, BEAS-2B, 18 h after poly I:C transfection, read-out: PolyIC/ICAM1 IC50 (BEAS2B)", "protocol": "Poly I:C was used in these studies as a simple, RNA virus mimic. Poly I:C-Oligofectamine mixture (2% Oligofectamine±1 μg/mL Poly I:C, 25 μL; Life Technologies and Invivogen Ltd., San Diego, Calif., respectively) was transfected into BEAS2B cells (human bronchial epithelial cells, ATCC). Cells were pre-incubated with final concentrations of test compounds for 2 h and the level of ICAM-1 expression on the cell surface was determined by cell-based ELISA. […]\nThe cells were washed with PBS-Tween (3×200 μL) and incubated with the secondary antibody (100 μL; HRP-conjugated anti-rabbit IgG, Dako Ltd., Glostrup, Denmark). […] The ICAM-1 signal was detected by reading the absorbance at 450 nm against a reference wavelength of 655 nm using a spectrophotometer. The cells were then washed with PBS-Tween (3×200 μL) and total cell numbers in each well were determined by reading absorbance at 595 nm after Crystal Violet staining (50 μL of a 2% solution in PBS) and elution by 1% SDS solution (100 μL) in PBS. The measured OD 450-655 readings were corrected for cell number by dividing with the OD595 reading in each well. The inhibition of ICAM-1 expression was calculated at each concentration of test compound by comparison with vehicle control."}, "[2]": {"system": "PBMCs", "assay": "Cell mitosis assay", "type": "cell-based", "conditions": "Homo sapiens, PBMC; At 5 ug/mL; PHA-treated PBMCs, 20 h exposure; Mean ± SEM", "protocol": "Peripheral blood mononucleocytes (PBMCs) from healthy subjects were separated from whole blood (Quintiles, London, UK) using a density gradient (Histopaque-1077, Sigma-Aldrich, Poole, UK). The PBMCs (3 million cells per sample) were subsequently treated with 2% PHA (Sigma-Aldrich, Poole, UK) for 48 h, followed by a 20 h exposure to varying concentrations of test compounds. At 2 h before collection, PBMCs were treated with demecolcine (0.1 μg/mL; Life Technologies, Paisley, UK,) to arrest cells in metaphase."}, "[3]": {"system": "d-U937 cells", "assay": "LPS-induced TNFα/IL-8 release in d-U937 cells", "type": "cell-based", "conditions": "Homo sapiens", "protocol": "U937 cells, a human monocytic cell line, were differentiated into macrophage-type cells by incubation with PMA (100-200 ng/mL) for 48 to 72 hr. Cells were pre-incubated with final concentrations of test compound for 2 h and were then stimulated with LPS (0.1 μg/mL; from E. Coli: 0111:64, Sigma) for 4 h. The supernatant was collected for determination of TNFα and IL-8 concentrations by sandwich ELISA (Duo-set, R&D systems). […] The relative 50% effective concentration (REC50) was determined from the resultant concentration-response curve. The inhibition of IL-8 production was calculated at each concentration of test compound by comparison with vehicle control."}, "[4]": {"target": "T1, p38 MAPKα isoform (MAPK14) (Homo sapiens, UniProt Q16539)", "T1 construct": "purchased Life Technologies", "T1 sequence (Q16539 whole entry, canonical isoform)": "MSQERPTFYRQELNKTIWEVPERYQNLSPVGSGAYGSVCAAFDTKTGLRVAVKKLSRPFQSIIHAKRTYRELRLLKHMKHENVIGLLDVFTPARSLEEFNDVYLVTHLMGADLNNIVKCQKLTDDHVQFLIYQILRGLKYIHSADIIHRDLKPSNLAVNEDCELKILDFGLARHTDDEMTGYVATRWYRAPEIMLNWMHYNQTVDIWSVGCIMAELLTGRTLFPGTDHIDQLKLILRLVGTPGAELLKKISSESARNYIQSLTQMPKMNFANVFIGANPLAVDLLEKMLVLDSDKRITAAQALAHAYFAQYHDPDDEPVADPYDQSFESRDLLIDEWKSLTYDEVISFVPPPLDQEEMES", "assay": "p38 MAPKα enzyme inhibition (Z-LYTE FRET)", "type": "biochemical", "protocol": "The enzyme inhibitory activities of the compound disclosed herein were determined by FRET using synthetic peptides labelled with both donor and acceptor fluorophores (Z-LYTE, Life Technologies, Paisley, UK).\nThe enzyme (40 ng/mL, 2.5 μL) was incubated with the test compound (2.5 μL of either 40 μg/mL, 12 μg/mL, 4 μg/mL, 1.2 μg/mL, 0.4 μg/mL, 0.12 μg/mL, 0.04 μg/mL, 0.012 μg/mL, 0.004 μg/mL or 0.0012 μg/mL) for 2 h at RT. […] Development reagent (protease, 5 μL) was added for 1 h prior to detection in a fluorescence microplate reader (EnVision, Perkin Elmer, Waltham, Mass., USA).\nIn all cases, the site-specific protease cleaves non-phosphorylated peptide only and eliminates the FRET signal. Phosphorylation levels of each reaction were calculated using the ratio of coumarin emission (donor) over fluorescein emission (acceptor), for which low ratios indicate high phosphorylation and high ratios indicate low phosphorylation levels."}}, "data": [{"smiles": "CCc1cncc(Nc2cc(COc3ccc(NC(=O)Nc4cc(C(C)(C)C)nn4-c4ccc(C)cc4)c4ccccc34)ccn2)n1", "note": "[Compound of the invention, 1-(3-(tert-butyl)-1-(p-tolyl)-1H-pyrazol-5-yl)-3-(4-((2-((6-ethylpyrazin-2-yl)amino)pyridin-4-yl)methoxy)naphthalen-1-yl)urea]", "values": [{"measurement": "IC50", "setting": "[1]", "result": 61.1, "unit": "nM"}, {"measurement": "inhibition at 5 µg/mL", "setting": "[2]", "result": "18 ± 7", "unit": "%"}, {"measurement": "EC50", "setting": "[3]; dU937, 4 h, read-out: LPS Induced Release TNFα REC50 (dU937)", "result": 5.5, "unit": "nM"}, {"measurement": "IC50", "setting": "[3]; dU937, d-U937 cells, LPS 0.1 μg/mL, 4 h", "result": 11.4, "unit": "nM"}, {"measurement": "IC50", "setting": "[4]", "result": 26, "unit": "nM"}]}]}
